# Test results from paper doi:10.1101/2025.05.29.656899v1 (biorxiv, 2025).
# Columns and labels:
# Assay in all cases: glucosylation kinetics, Michaelis-Menten
# Type in all cases: biochemical
# UGT72B19 = target: T1, UGT72B19 (Fagopyrum esculentum, UniProt A0A0A1H7P3); details: UDP-glucose donor; phosphate buffer pH 8.0; 39 °C
# T1 sequence (A0A0A1H7P3 1-474): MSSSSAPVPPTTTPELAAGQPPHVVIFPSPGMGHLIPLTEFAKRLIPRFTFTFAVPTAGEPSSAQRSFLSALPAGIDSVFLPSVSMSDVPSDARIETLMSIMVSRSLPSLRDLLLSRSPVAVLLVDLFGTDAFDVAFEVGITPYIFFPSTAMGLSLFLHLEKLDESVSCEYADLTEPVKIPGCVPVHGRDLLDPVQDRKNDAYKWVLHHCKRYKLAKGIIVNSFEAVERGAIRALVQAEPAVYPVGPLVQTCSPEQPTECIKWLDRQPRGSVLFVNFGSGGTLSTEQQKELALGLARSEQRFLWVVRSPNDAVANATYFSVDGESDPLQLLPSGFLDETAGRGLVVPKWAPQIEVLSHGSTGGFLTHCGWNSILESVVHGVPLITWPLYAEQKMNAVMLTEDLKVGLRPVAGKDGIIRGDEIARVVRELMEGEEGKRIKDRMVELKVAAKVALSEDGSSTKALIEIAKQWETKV
# UGT71C1 = target: T2, UGT71C1 (Arabidopsis thaliana, UniProt O82381); details: UDP-glucose donor; phosphate buffer pH 8.0; 30 °C
# T2 sequence (O82381 1-481): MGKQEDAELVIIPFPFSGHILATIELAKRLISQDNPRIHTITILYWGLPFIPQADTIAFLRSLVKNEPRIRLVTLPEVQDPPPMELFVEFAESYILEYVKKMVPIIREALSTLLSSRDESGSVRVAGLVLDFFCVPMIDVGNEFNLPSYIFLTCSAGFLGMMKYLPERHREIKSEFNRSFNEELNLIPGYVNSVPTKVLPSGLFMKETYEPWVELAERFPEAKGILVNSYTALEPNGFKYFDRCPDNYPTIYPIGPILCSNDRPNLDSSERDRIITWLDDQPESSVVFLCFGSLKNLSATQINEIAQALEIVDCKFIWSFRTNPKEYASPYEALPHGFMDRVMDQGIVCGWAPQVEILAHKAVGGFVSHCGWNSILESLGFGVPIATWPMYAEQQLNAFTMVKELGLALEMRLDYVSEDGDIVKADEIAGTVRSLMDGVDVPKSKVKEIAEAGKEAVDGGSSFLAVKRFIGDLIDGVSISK
# UGT72B68 = target: T3, UGT72B68 (Solanum lycopersicum, UniProt D7S016); details: UDP-glucose donor; phosphate buffer pH 8.0; 35 °C
# T3 sequence (D7S016 1-476): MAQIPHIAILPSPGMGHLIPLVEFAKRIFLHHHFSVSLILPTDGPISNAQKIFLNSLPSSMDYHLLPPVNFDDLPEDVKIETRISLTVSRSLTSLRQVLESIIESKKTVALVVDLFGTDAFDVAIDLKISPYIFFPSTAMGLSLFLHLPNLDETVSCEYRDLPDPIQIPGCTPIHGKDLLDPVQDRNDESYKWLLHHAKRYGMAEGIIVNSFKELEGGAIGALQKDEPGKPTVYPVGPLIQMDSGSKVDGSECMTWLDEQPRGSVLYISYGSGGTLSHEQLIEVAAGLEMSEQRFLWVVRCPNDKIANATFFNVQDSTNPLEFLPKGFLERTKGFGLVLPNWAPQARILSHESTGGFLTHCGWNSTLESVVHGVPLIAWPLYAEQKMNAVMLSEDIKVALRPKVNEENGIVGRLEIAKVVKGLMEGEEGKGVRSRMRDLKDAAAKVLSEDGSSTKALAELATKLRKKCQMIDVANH
smiles,measurement,setting,value
"COC(=O)c1ccccc1N [MANT, methyl anthranilate]",Km,UGT72B19,212 ± 19.1 µM
same,Km,UGT71C1,164 ± 22 µM
same,Km,UGT72B68,347 ± 45.7 µM
